Test results: patent US8507562B2, “Synthesis of (1)-beta-elemene, (-)-beta-elemenal, (-)-beta-elemenol, (-)-beta-elemene fluoride and their analogues, intermediates, and composition and uses thereof” (HYWE Pharmaceuticals, Inc., priority 2004, dated 2013)
Values after ≈ are worked out from the molar mass of the structure shown. Read-outs that look alike come from different tables or passages of the source.

Legend:
[1] = Solubility comparison; format: physicochemical
[2] = test system: A549 lung cancer; test: MTT survival assay; conditions: 2 × 10^4 cells/ml
[3] = test system: H-460 lung cancer; test: MTT survival assay; format: cell-based, human
[4] = test system: A-172 brain tumor; test: MTT survival assay; format: cell-based, human; conditions: read-out: Cisplatin IC50; A-172; combination: Elemene at IC20 of the cell line
[5] = test system: PC-3 prostate cancer; test: MTT survival assay; format: cell-based, human; conditions: read-out: Cisplatin IC50, combination: Elemene at IC20 of the cell line
[6] = test system: H-69 lung cancer; test: MTT survival assay; format: cell-based, human; conditions: read-out: Cisplatin IC50, combination: Elemene at IC20 of the cell line
[7] = test system: CCL-2 (Hela) cervical cancer; test: MTT survival assay; format: cell-based, human; conditions: read-out: Cisplatin IC50, combination: Elemene at IC20 of the cell line
[8] = test system: DU-145 prostate cancer; test: MTT survival assay; format: cell-based, human; conditions: read-out: Cisplatin IC50, combination: Elemene at IC20 of the cell line
[9] = test system: U-87 brain tumor; test: MTT survival assay; format: cell-based, human; conditions: read-out: Cisplatin IC50; U-87; combination: Elemene at IC20 of the cell line
[10] = test system: MCAS ovarian cancer; test: MTT survival assay; format: cell-based, human; conditions: read-out: Cisplatin IC50, combination: Elemene at IC20 of the cell line
[11] = test system: Colon Cancer Cells HCT-15; test: MTS cell viability assay; conditions: combinations with Elemene 160 μg/ml, n = 8
[12] = test system: Colon Cancer Cells HCT-116; test: MTS cell viability assay; format: cell-based, human; conditions: combinations with Elemene 160 μg/ml, n = 8
[13] = test system: late-stage colorectal cancer; conditions: enema twice a day for 10 days; Elemene 200 mg (17 patients), 5-FU 500 mg (14 patients); cited from earlier work
[14] = test system: Colon Cancer Cells Caco-2; test: MTS cell viability assay; format: cell-based, human; conditions: combinations with Elemene 100 μg/ml, n = 8
[15] = test system: Colon Cancer Cells Colo 205; test: MTS cell viability assay; conditions: Colo 205, drug alone
[16] = test system: SKOV3/CIS cells; conditions: cited from earlier work

C=C[C@]1(C)CC[C@@H](C(=C)CO)C[C@H]1C(=C)C [(−)-beta-elemenol, (−)-Beta-elemenol]
solubility relative to (−)-beta-elemene [1]: more soluble than (−)-beta-elemene | IC50 ([2]; A549, 24 h): 74.0 µg/mL (≈ 336 µM) | IC50 ([2]; A549, 48 h): 60.1 µg/mL (≈ 273 µM) | IC50 ([2]; A549, 72 h): 81.0 µg/mL (≈ 368 µM) | IC50 ([3]; H460, 24 h, 2 × 10^4 cells/ml): 111.0 µg/mL | IC50 ([3]; H460, 48 h, 2 × 10^4 cells/ml): 69.0 µg/mL | IC50 ([3]; H460, 72 h, 2 × 10^4 cells/ml): 74.5 µg/mL

N.N.[Cl][Pt][Cl] [Cisplatin]
IC50 [4]: 24 µM | IC50 [5]: 80 µM | IC50 [6]: 8 µM | IC50 [7]: 27.5 µM | IC50 [8]: 384 µM | IC50 [9]: 10 µM | IC50 [10]: 38 µM | IC50 ([3]; read-out: Cisplatin IC50, H-460, combination: Elemene at IC20 of the cell line): 80 µM

O=c1[nH]cc(F)c(=O)[nH]1 [Lr 5-Fu]
IC50 ([11]; HCT-15, 4 hr/24 hr × 2): 40.0 ± 7.01 µg/mL | IC50 ([11]; HCT-15, 4 hr/24 hr × 3): 28.4 ± 7.62 µg/mL | IC50 ([11]; HCT-15, 4 hr/24 hr): 80.0 ± 13.6 µg/mL | IC50 ([11]; HCT-15, 8 hr): 68.1 ± 7.63 µg/mL | IC50 ([11]; HCT-15, 12 hr): 52.1 ± 5.09 µg/mL | IC50 ([11]; HCT-15, 48 hr): 18.4 ± 4.32 µg/mL | IC50 ([11]; HCT-15, 72 hr): 7.95 ± 3.80 µg/mL | IC50 ([12]; HCT-116, 4 hr/24 hr × 2): 42.7 ± 4.78 µg/mL | IC50 ([12]; HCT-116, 4 hr/24 hr × 3): 22.4 ± 8.75 µg/mL | IC50 ([12]; HCT-116, 4 hr/24 hr): 85.1 ± 8.89 µg/mL | IC50 ([12]; HCT-116, 4 hr): 83.3 ± 12.1 µg/mL | IC50 ([12]; HCT-116, 8 hr): 43.1 ± 13.1 µg/mL | IC50 ([12]; HCT-116, 12 hr): 21.7 ± 3.70 µg/mL | IC50 ([12]; HCT-116, 24 hr): 11.8 ± 2.54 µg/mL | IC50 ([12]; HCT-116, 48 hr): 7.4 ± 1.82 µg/mL | IC50 ([12]; HCT-116, 72 hr): 4.5 ± 0.74 µg/mL | CR [13]: CR: 57.1% | PR [13]: PR: 21.4% | IC50 ([14]; Caco-2, 4 hr/24 hr × 2): 17.0 ± 3.29 µg/mL | IC50 ([14]; Caco-2, 4 hr/24 hr × 3): 13.8 ± 2.27 µg/mL | IC50 ([14]; Caco-2, 4 hr/24 hr): 28.8 ± 9.87 µg/mL | IC50 ([14]; Caco-2, 4 hr): 189 ± 27.1 µg/mL | IC50 ([14]; Caco-2, 8 hr): 102 ± 13.0 µg/mL | IC50 ([14]; Caco-2, 12 hr): 42.5 ± 9.84 µg/mL | IC50 ([14]; Caco-2, 24 hr): 23.9 ± 4.37 µg/mL | IC50 ([14]; Caco-2, 48 hr): 18.3 ± 2.83 µg/mL | IC50 ([14]; Caco-2, 72 hr): 12.6 ± 2.07 µg/mL | IC50 ([15]; Time 4 hr, n = 8): 117 ± 9.02 µg/mL (≈ 899 µM) | IC50 ([15]; Time 4 hr/24 hr × 2, n = 8): 26.3 ± 5.34 µg/mL (≈ 202 µM) | IC50 ([15]; Time 4 hr/24 hr × 3, n = 8): 11.6 ± 4.13 µg/mL (≈ 89.2 µM) | IC50 ([15]; Time 4 hr/24 hr, n = 8): 34.6 ± 4.76 µg/mL (≈ 266 µM) | IC50 ([15]; Time 8 hr, n = 8): 91.3 ± 5.62 µg/mL (≈ 702 µM) | IC50 ([15]; Time 12 hr, n = 8): 36.7 ± 4.66 µg/mL (≈ 282 µM) | IC50 ([15]; Time 24 hr, n = 8): 21.1 ± 6.06 µg/mL (≈ 162 µM) | IC50 ([15]; Time 48 hr, n = 8): 13.2 ± 1.44 µg/mL (≈ 101 µM) | IC50 ([15]; Time 72 hr, n = 8): 11.0 ± 1.60 µg/mL (≈ 84.6 µM)

COc1ccc(CCN(C)CCCC(C#N)(c2ccc(OC)c(OC)c2)C(C)C)cc1OC (stereo not shown) [Verapamil]
enhancement of sensitivity to doxorubicin [16]: 260 fold
